{"source": "patent US11376203B2", "about": "“Hair treatment composition” (Conopco, Inc., priority 2017, dated 2022)", "key": {"[1]": {"assay": "Hair switch volume reduction benefit after subsequent washing", "conditions": "switches from Example 1 subsequently washed, images captured; compared to control", "method": "(§1) Dark brown European wavy hair switches of length 25 cm and weight 2 gms, were treated as follows:\n(§2) At the end of the soaking period, the switches were left to dry at 20° C. and 50% RH. When dried, the switches were straightened with 5 passes of FHI irons (FHI Brands, 29003 Avenue Sherman Valencia, Calif. 91355 USA). The switches were then placed in a humidity chamber ˜30 C/80% RH for 1 hour and images were captured and analyzed.\nThe switches from the above example were subsequently washed and the images were captured. […] The corresponding benefits for glycine was only −10%."}, "[2]": {"assay": "Hair switch shape and frizz control (volume) after straightening and exposure to high humidity", "conditions": "After 1 hour at high humidity (30 C./80% RH); switches soaked 30 minutes in 1% aqueous solution, dried, straightened with 5 passes of irons; volume vs water control", "method": "as §1\nControl: After initial washing, soaked for 30 minutes in water\nComparative Example A: After initial washing, soaked for 30 minutes in aqueous solution of 1% glycine\nExample 1: soaked for 30 minutes in aqueous solution of 1% N-formyl glycine\nas §2"}}, "data": [{"smiles": "NCC(=O)O", "note": "[Comparative Example A, glycine]", "values": [{"measurement": "benefit over control (volume reduction) after washing", "setting": "[1]", "value": "−10", "unit": "%"}, {"measurement": "% shape and frizz control benefit against control", "setting": "[2]", "value": "−6", "unit": "%"}]}, {"smiles": "O=CNCC(=O)O", "note": "[Example 1, N-formyl glycine]", "values": [{"measurement": "benefit over control (volume reduction) after washing", "setting": "[1]", "value": 32, "unit": "%"}, {"measurement": "% shape and frizz control benefit against control", "setting": "[2]", "value": 30, "unit": "%"}]}]}
